Reference: patent US20210017174A1, “IDENTIFICATION AND USE OF ERK5 INHIBITOR” (Bayer Aktiengesellschaft, priority 2018, published 2021)

These compounds were tested against T1, ERK5 (Homo sapiens, UniProt Q13164) (assay: TR-FRET-based Erk5 activity inhibition assay (biochemical assay ERK5)). Conditions: @ 20 μM; read-out: inhibition in biochemical ERK5 assay at a single concentration.
T1 construct: host or cells: E. coli
T1 sequence (Q13164 1-398): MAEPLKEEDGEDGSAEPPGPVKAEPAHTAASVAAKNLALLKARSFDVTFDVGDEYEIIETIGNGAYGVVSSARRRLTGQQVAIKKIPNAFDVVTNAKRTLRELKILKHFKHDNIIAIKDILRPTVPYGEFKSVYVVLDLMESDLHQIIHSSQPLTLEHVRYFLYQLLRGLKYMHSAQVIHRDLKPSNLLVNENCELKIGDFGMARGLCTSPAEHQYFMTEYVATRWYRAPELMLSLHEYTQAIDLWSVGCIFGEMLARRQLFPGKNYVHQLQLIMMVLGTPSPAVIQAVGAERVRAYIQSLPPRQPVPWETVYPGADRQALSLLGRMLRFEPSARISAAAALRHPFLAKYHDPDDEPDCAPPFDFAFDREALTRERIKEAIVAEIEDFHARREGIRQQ

| inhibition at 20 µM [%] | Compound |
| --- | --- |
| 44.2 | O=C(O)c1ccc2c(C3CCN(C(=O)c4ccc(OC(F)(F)F)cc4)CC3)ncnc2c1 [Example 32, 4-{1-[4-(Trifluoromethoxy)benzoyl]piperidin-4-yl}quinazoline-7-carboxylic Acid] |
| 16 | COc1cc2ncnc(C3CCN(C(=O)c4ccccc4OC(F)(F)F)CC3)c2cc1OC [Example 28, [4-(6,7-Dimethoxyquinazolin-4-yl)piperidin-1-yl][2-(trifluoromethoxy)phenyl]-methanone] |

Same assay, conditions: TR-FRET, 250 μM ATP, 1 μM substrate peptide, 60 min at 22° C.; read-out: IC50 value biochemiocal ERK5 asssay

| Compound | IC50 [nM] |
| --- | --- |
| CS(=O)(=O)Nc1ccc2c(C3CCN(C(=O)c4ccc(OC(F)(F)F)cc4)CC3)ncnc2c1 [Example 39, N-(4-{1-[4-(Trifluoromethoxy)benzoyl]piperidin-4-yl}quinazolin-7-yl)methane-sulfonamide] | 351 |
| N#Cc1ccc2c(C3CCN(C(=O)c4ccc(OC(F)(F)F)cc4)CC3)ncnc2c1 [Example 34, 4-{1-[4-(Trifluoromethoxy)benzoyl]piperidin-4-yl}quinazoline-7-carbonitrile] | 506 |
| COc1cc2ncnc(C3CCN(C(=O)c4ccccc4)CC3)c2cc1OC [Example 9, [4-(6,7-Dimethoxyquinazolin-4-yl)piperidin-1-yl](phenyl)methanone] | 6170 |
| COc1ccc2c(C3CCN(C(=O)c4ccc(OC(F)(F)F)cc4C)CC3)ncnc2c1 [Example 61, [4-(7-Methoxyquinazolin-4-yl)piperidin-1-yl][2-methyl-4-(trifluoromethoxy)-phenyl]methanone] | 504 |
| COC(=O)c1ccc2c(C3CCN(C(=O)c4ccc(OC(F)(F)F)cc4)CC3)ncnc2c1 [Example 31, Methyl 4-{1-[4-(trifluoromethoxy)benzoyl]piperidin-4-yl}quinazoline-7-carboxylate] | 579 |
| CC(=O)Nc1ccc2c(C3CCN(C(=O)c4ccc(OC(F)(F)F)cc4)CC3)ncnc2c1 [Example 38, N-(4-{1-[4-(Trifluoromethoxy)benzoyl]piperidin-4-yl}quinazolin-7-yl)acetamide] | 1270 |
| O=C(c1ccc(OC(F)(F)F)cc1)N1CCC(c2ncnc3ccccc23)CC1 [Example 58, [4-(Quinazolin-4-yl)piperidin-1-yl][4-(trifluoromethoxy)phenyl]methanone] | 1680 |
| CC(C)COc1ccc2c(C3CCN(C(=O)c4ccc(OC(F)(F)F)cc4)CC3)ncnc2c1 [Example 46, {4-[7-(2-Methylpropoxy)quinazolin-4-yl]piperidin-1-yl}[4-(trifluoromethoxy)-phenyl]methanone] | 293 |
| Nc1ccc2c(C3CCN(C(=O)c4ccc(OC(F)(F)F)cc4)CC3)ncnc2c1 [Example 37, [4-(7-Aminoquinazolin-4-yl)piperidin-1-yl][4-(trifluoromethoxy)phenyl]-methanone] | 867 |
| COc1cc2ncnc(C3CCN(C(=O)c4ccc(COCC(F)(F)F)cc4)CC3)c2cc1OC [Example 21, [4-(6,7-Dimethoxyquinazolin-4-yl)piperidin-1-yl]{4-[(2,2,2-trifluoroethoxy)methyl]phenyl}-methanone] | 2660 |
| CCCc1ccc(C(=O)N2CCC(c3ncnc4cc(OC)c(OC)cc34)CC2)cc1 [Example 20, [4-(6,7-Dimethoxyquinazolin-4-yl)piperidin-1-yl](4-propylphenyl)methanone] | 281 |
| O=C(Nc1ccccc1)c1ccc2c(C3CCN(C(=O)c4ccc(OC(F)(F)F)cc4)CC3)ncnc2c1 [Example 45, N-Phenyl-4-{1-[4-(trifluoromethoxy)benzoyl]piperidin-4-yl}quinazoline-7-carboxamide] | 3260 |
| CN(C)C(=O)c1ccc2c(C3CCN(C(=O)c4ccc(OC(F)(F)F)cc4)CC3)ncnc2c1 [Example 42, N,N-Dimethyl-4-{1-[4-(trifluoromethoxy)benzoyl]piperidin-4-yl}quinazoline-7-carboxamide] | 980 |
| O=C(c1ccc(OC(F)(F)F)cc1)N1CCC(c2ncnc3cc(N4CCCCC4=O)ccc23)CC1 [Example 55, 1-(4-{1-[4-(Trifluoromethoxy)benzoyl]piperidin-4-yl}quinazolin-7-yl)piperidin-2-one] | 1300 |
| COc1cc2ncnc(C3CCN(C(=O)c4ccc(C(C)C)cc4)CC3)c2cc1OC [Example 18, [4-(6,7-Dimethoxyquinazolin-4-yl)piperidin-1-yl][4-(propan-2-yl)phenyl]-methanone] | 358 |
| COc1cc2ncnc(C3CCN(C(=O)c4ccc(Cl)cc4)CC3)c2cc1OC [Example 4, 4-[1-(4-Chlorobenzoyl)piperidin-4-yl]-6,7-dimethoxyquinazoline] | 770 |
| COCCOc1ccc(C(=O)N2CCC(c3ncnc4cc(OC)c(OC)cc34)CC2)cc1 [Example 24, [4-(6,7-Dimethoxyquinazolin-4-yl)piperidin-1-yl][4-(2-methoxyethoxy)phenyl]-methanone] | 9660 |
| CC(C)(O)COc1ccc2c(C3CCN(C(=O)c4ccc(OC(F)(F)F)cc4)CC3)ncnc2c1 [Example 63, {4-[7-(2-Hydroxy-2-methylpropoxy)quinazolin-4-yl]piperidin-1-yl}[4-(trifluoro-methoxy)phenyl]-methanone] | 274 |
| O=C(c1ccc2c(C3CCN(C(=O)c4ccc(OC(F)(F)F)cc4)CC3)ncnc2c1)N1CCOCC1 [Example 44, Morpholin-4-yl(4-{1-[4-(trifluoromethoxy)benzoyl]piperidin-4-yl}quinazolin-7-yl)methanone] | 2240 |
| O=C(c1ccc2c(C3CCN(C(=O)c4ccc(OC(F)(F)F)cc4)CC3)ncnc2c1)N1CCCC1 [Example 43, Pyrrolidin-1-yl(4-{1-[4-(trifluoromethoxy)benzoyl]piperidin-4-yl}quinazolin-7-yl)methanone] | 1590 |

Second part, the compound after the results:

| IC50 [nM] | Compound |
| --- | --- |
| 93.1 | COc1cc2ncnc(C3CCN(C(=O)c4ccc(OC(F)(F)F)cc4F)CC3)c2cc1OC [Example 2, [4-(6,7-Dimethoxyquinazolin-4-yl)piperidin-1-yl][2-fluoro-4-(trifluoromethoxy)phenyl]methanone] |
| 274 | COc1ccc2c(C3CCN(C(=O)c4ccc(OC(F)(F)F)c(C)c4)CC3)ncnc2c1 [Example 62, [4-(7-Methoxyquinazolin-4-yl)piperidin-1-yl][3-methyl-4-(trifluoromethoxy)-phenyl]methanone] |
| 241 | COc1ccc2c(C3CCN(C(=O)c4ccc(OC(F)(F)F)cc4NC(C)=O)CC3)ncnc2c1 [Example 67, N-[2-{[4-(7-Methoxyquinazolin-4-yl)piperidin-1-yl]carbonyl}-5-(trifluoro-methoxy)phenyl]acetamide] |
| 224 | O=C(c1ccc(OC(F)(F)F)cc1)N1CCC(c2ncnc3cc(Br)ccc23)CC1 [Example 40, [4-(7-Bromoquinazoline-4-yl)piperidin-1-yl][4-(trifluoromethoxy)phenyl]-methanone] |
| 78.1 | O=C(c1ccc(OC(F)(F)F)cc1)N1CCC(c2ncnc3cc(-c4ccn[nH]4)ccc23)CC1 [Example 53, {4-[7-(1H-Pyrazol-5-yl)quinazolin-4-yl]piperidin-1-yl}[4-(trifluoromethoxy)-phenyl]methanone] |
| 190 | COc1cc2ncnc(C3CCN(C(=O)c4ccc(Br)cc4)CC3)c2cc1OC [Example 12, (4-Bromophenyl)[4-(6,7-dimethoxyquinazolin-4-yl)piperidin-1-yl]methanone] |
| 36.3 | CC1(C)CN(c2cnc3c(C4CCN(C(=O)c5ccc(OC(F)(F)F)cc5)CC4)ncnc3c2)CCO1 [Example 78, {4-[7-(2,2-Dimethylmorpholin-4-yl)pyrido[3,2-d]pyrimidin-4-yl]piperidin-1-yl}[4-(trifluoromethoxy)phenyl]methanone] |
| 49.9 | COC1CCN(c2cnc3c(C4CCN(C(=O)c5ccc(OC(F)(F)F)cc5)CC4)ncnc3c2)CC1 [Example 79, {4-[7-(4-Methoxypiperidin-1-yl)pyrido[3,2-d]pyrimidin-4-yl]piperidin-1-yl}[4-(trifluoromethoxy)phenyl]methanone] |
| 167 | CC(=O)NCCOc1ccc2c(C3CCN(C(=O)c4ccc(OC(F)(F)F)cc4)CC3)ncnc2c1 [Example 50, N-{2-[(4-{1-[4-(Trifluoromethoxy)benzoyl]piperidin-4-yl}quinazolin-7-yl)oxy]ethyl}acetamide] |
| 270 | O=C(c1ccc(OC(F)(F)F)cc1)N1CCC(c2ncnc3cc(OCC4COC4)ccc23)CC1 [Example 48, {4-[7-(Oxetan-3-ylmethoxy)quinazolin-4-yl]piperidin-1-yl}[4-(trifluoromethoxy)-phenyl]methanone] |
| 253 | NC(=O)c1ccc2c(C3CCN(C(=O)c4ccc(OC(F)(F)F)cc4)CC3)ncnc2c1 [Example 33, 4-{1-[4-(Trifluoromethoxy)benzoyl]piperidin-4-yl}quinazoline-7-carboxamide] |
| 165 | COc1cc2ncnc(C3CCN(C(=O)c4ccc(OC(F)F)cc4)CC3)c2cc1OC [Example 19, [4-(Difluoromethoxy)phenyl][4-(6,7-dimethoxyquinazolin-4-yl)piperidin-1-yl]methanone] |
| 192 | O=C(c1ccc(OC(F)(F)F)cc1)N1CCC(c2ncnc3cc(O)ccc23)CC1 [Example 36, [4-(7-Hydroxyquinazolin-4-yl)piperidin-1-yl][4-(trifluoromethoxy)phenyl]-methanone] |
| 198 | CN(C)CCOc1ccc2c(C3CCN(C(=O)c4ccc(OC(F)(F)F)cc4)CC3)ncnc2c1 [Example 56, Formic Acid—(4-{7-[2-(dimethylamino)ethoxy]quinazolin-4-yl}piperidin-1-yl)[4-(trifluoromethoxy)phenyl]methanone (1:1)] |

The compounds below were run on SN12C-MEF2-luc (clone #37) reporter cell line (assay: Luciferase reporter assay in SN12C-MEF2-luc cells (EGF-stimulated, MEF2-responsive luciferase)). Conditions: Homo sapiens, 16 h compound incubation, then EGF 100 ng/ml for 2 h, ONE-Glo luminescence.
Format: cell-based

| Compound | IC50 [nM] |
| --- | --- |
| CN1CCN(c2cnc3c(C4CCN(C(=O)c5ccc(OC(F)(F)F)cc5N)CC4)ncnc3c2)CC1 [Example 81, [2-Amino-4-(trifluoromethoxy)phenyl]{4-[7-(4-methylpiperazin-1-yl)pyrido[3,2-d]pyrimidin-4-yl]piperidin-1-yl}methanone] | 115 |
| COC(=O)c1ccc2c(C3CCN(C(=O)c4ccc(OC(F)(F)F)cc4)CC3)ncnc2c1 [Example 31, Methyl 4-{1-[4-(trifluoromethoxy)benzoyl]piperidin-4-yl}quinazoline-7-carboxylate] | 14600 |

Further lines, results first:

| IC50 [nM] | Compound |
| --- | --- |
| 935 | COc1cc2ncnc(C3CCN(C(=O)c4ccc(OC(F)(F)F)cc4F)CC3)c2cc1OC [Example 2, [4-(6,7-Dimethoxyquinazolin-4-yl)piperidin-1-yl][2-fluoro-4-(trifluoromethoxy)phenyl]methanone] |
| 669 | COc1ccc2c(C3CCN(C(=O)c4ccc(OC(F)(F)F)cc4NC(C)=O)CC3)ncnc2c1 [Example 67, N-[2-{[4-(7-Methoxyquinazolin-4-yl)piperidin-1-yl]carbonyl}-5-(trifluoro-methoxy)phenyl]acetamide] |
| 627 | O=C(c1ccc(OC(F)(F)F)cc1)N1CCC(c2ncnc3cc(-c4ccn[nH]4)ccc23)CC1 [Example 53, {4-[7-(1H-Pyrazol-5-yl)quinazolin-4-yl]piperidin-1-yl}[4-(trifluoromethoxy)-phenyl]methanone] |
| 103 | CC1(C)CN(c2cnc3c(C4CCN(C(=O)c5ccc(OC(F)(F)F)cc5)CC4)ncnc3c2)CCO1 [Example 78, {4-[7-(2,2-Dimethylmorpholin-4-yl)pyrido[3,2-d]pyrimidin-4-yl]piperidin-1-yl}[4-(trifluoromethoxy)phenyl]methanone] |
| 122 | COC1CCN(c2cnc3c(C4CCN(C(=O)c5ccc(OC(F)(F)F)cc5)CC4)ncnc3c2)CC1 [Example 79, {4-[7-(4-Methoxypiperidin-1-yl)pyrido[3,2-d]pyrimidin-4-yl]piperidin-1-yl}[4-(trifluoromethoxy)phenyl]methanone] |
| 387 | CC(=O)NCCOc1ccc2c(C3CCN(C(=O)c4ccc(OC(F)(F)F)cc4)CC3)ncnc2c1 [Example 50, N-{2-[(4-{1-[4-(Trifluoromethoxy)benzoyl]piperidin-4-yl}quinazolin-7-yl)oxy]ethyl}acetamide] |
